Data published in ChEMBL document CHEMBL4699398, “The synthesis and biological evaluation of sanguinarine derivatives as anti-non-small cell lung cancer agents” (RSC Med Chem, 2020).
pIC50: −log10 of the molar value. One block for each compound: values may come before it.

Assays:
A549 = assay: Antiproliferative activity against human A549 cells assessed as inhibition of cell growth incubated for 72 hrs by CCK-8 assay; conditions: A549, 72 h
NCI-H1975 = assay: Antiproliferative activity against human H1975 cells assessed as inhibition of cell growth incubated for 72 hrs by CCK-8 assay; conditions: NCI-H1975, 72 h
HeLa = assay: Antiproliferative activity against human HeLa cells assessed as reduction in cell viability after 24 hrs by MTT assay; format: functional, cell-based

SMILES: CN1Cc2c(ccc3c2OCO3)-c2ccc3cc4c(cc3c21)OCO4 [DIHYDROSANGUINARINE]
pIC50 (A549): < 4.52
pIC50 (NCI-H1975): 4.72

SMILES: CCCN1Cc2c(ccc3c2OCO3)-c2ccc3cc4c(cc3c21)OCO4
pIC50 (A549): < 4.52
pIC50 (NCI-H1975): < 4.52

SMILES: CN1c2c(ccc3cc4c(cc23)OCO4)-c2ccc3c(c2C1NC1CCCC1)OCO3 (centres undefined)
pIC50 (A549): 5.71
pIC50 (NCI-H1975): 5.80

SMILES: COC1c2c(ccc3c2OCO3)-c2ccc3cc4c(cc3c2N1C)OCO4 (centres undefined)
pIC50 (A549): 5.80
pIC50 (NCI-H1975): 5.93

SMILES: c1cc2c(cnc3c4cc5c(cc4ccc23)OCO5)c2c1OCO2
pIC50 (A549): < 4.52
pIC50 (NCI-H1975): < 4.52

SMILES: C[n+]1cc2c3c(ccc2c2ccc4cc5c(cc4c21)OCO5)OCO3 [SANGUINARIUM CHLORIDE]
pIC50 (A549): 5.80
pIC50 (NCI-H1975): 5.88
pIC50 (HeLa): 5.61

SMILES: CN1c2c(ccc3cc4c(cc23)OCO4)-c2ccc3c(c2C1NCc1ccccc1)OCO3 (centres undefined)
pIC50 (A549): 5.36
pIC50 (NCI-H1975): 5.50

SMILES: CCNC1c2c(ccc3c2OCO3)-c2ccc3cc4c(cc3c2N1C)OCO4 (centres undefined)
pIC50 (A549): 5.90
pIC50 (NCI-H1975): 6.03

Results, then the compound that gave them:

pIC50 (A549): < 4.52
pIC50 (NCI-H1975): < 4.52
SMILES: CCN1Cc2c(ccc3c2OCO3)-c2ccc3cc4c(cc3c21)OCO4

pIC50 (A549): 5.84
pIC50 (NCI-H1975): 6.02
SMILES: CC(C)NC1c2c(ccc3c2OCO3)-c2ccc3cc4c(cc3c2N1C)OCO4 (centres undefined)

pIC50 (A549): < 4.52
pIC50 (NCI-H1975): < 4.52
SMILES: CC1c2c(ccc3c2OCO3)-c2ccc3cc4c(cc3c2N1C)OCO4 (centres undefined)

pIC50 (A549): 5.83
pIC50 (NCI-H1975): 6.00
SMILES: CCCNC1c2c(ccc3c2OCO3)-c2ccc3cc4c(cc3c2N1C)OCO4 (centres undefined)

pIC50 (A549): < 4.52
pIC50 (NCI-H1975): < 4.52
SMILES: Cn1c(=O)c2c3c(ccc2c2ccc4cc5c(cc4c21)OCO5)OCO3

pIC50 (A549): 6.02
pIC50 (NCI-H1975): 6.10
SMILES: CN1c2c(ccc3cc4c(cc23)OCO4)-c2ccc3c(c2C1C#N)OCO3 (centres undefined)
